Test results from ChEMBL document CHEMBL3507680, “University of Dundee, Gates Library screen for HepG2 cell viability”.

Experiment: Human HepG2 cell viability assay in 384 well format
Assay type: toxicity, cell-based
Design: dose 125 nL, time 70.5 hour; concentration not given beside the values
Conditions: HepG2 cells, read-out: Inhibition

Structure (SMILES) | cytotoxicity at 70.5 h [%]
O=C(Nc1ccc(F)cc1)C1CNCCN1C(=O)CSc1ccncc1 (centres undefined) | 28.9
O=S(=O)(NCc1ccccc1)Nc1ccc(-n2ccnc2)cc1 | 23.3
CCc1cnc(N)nc1NC(C)c1cnn(C)c1 (centres undefined) | -5.96
Cn1c(N2CCOCC2)nc2cc(C(=O)NCc3cccnc3)ccc21 | -9.04
O=C1NCCN(C(=O)CN2CCOC2=O)C1c1cccc(F)c1 (centres undefined) | -18.2
CNc1cc(C)nc(-c2cc(NC3CCNCC3)nc3[nH]ccc23)n1 | -4.41
Cc1ncc(C(=O)N2C[C@H](CO)C[C@H](CN3CCOCC3)C2)c(=O)[nH]1 | 3.07
CC(C)n1ccnc1C1CCCN(c2ncccc2C(N)=O)C1 (centres undefined) | -0.947
O=C1C[C@H]2CC[C@@H](CN1)N2C(=O)CCCc1ccc(Cl)cc1 | -7.24
Cc1cccc(CN2CCN(c3ncnc4[nH]cnc34)CC2CCO)n1 (centres undefined) | 9.72
Clc1ccc(N2CCC(C3CCN(Cc4cccnc4)CC3)C2)nc1 (centres undefined) | -8.52
Cc1nc(NC(=O)NC2CC(=O)N(C)C2)nn1C(C)C (centres undefined) | 2.26
CC(Cn1cccn1)n1cnc2cccc(F)c2c1=O (centres undefined) | -7.35
COCC1CCCCN1C(=O)c1cc(Cn2ccc3ccccc32)[nH]n1 (centres undefined) | -2.47
c1ccc(COc2ccccc2NC2CCOCC2)nc1 | -4.09
CC(C(=O)O)N1CC2(CCC1=O)CCN(CCSc1ccccc1)CC2 (centres undefined) | -13.8
Cc1ccc(-c2nc(CN3CCOCS3(=O)=O)c(C)o2)cc1 | -0.637
Cc1nccn1CCN(C)C(=O)C1CCN(C(=O)C2CCCC2)CC1 | 8.88
CCN(CC)C(=O)[C@@H]1C[C@@H](N)CN1c1nc(N2CCCC2)nc(C)c1C | 25.5
Cc1cnc(N(C)Cc2cnc3ccccc3n2)nc1N(C)C | -14.7
Cn1c(CN2CCC(O)CC2)nnc1C1CCCN(C(=O)C2CNC2)C1 (centres undefined) | -5.47
Cc1ccc(N2CCN(C(=O)CN3C[C@@H]4CC[C@H]3C4)CC2=O)cc1 | 24.1
O=S1(=O)COCCN1Cc1ccc(F)c(C(F)(F)F)c1 | -10.2
COCCn1ccnc1C1CCN(C(=O)CSc2nnc(C)o2)CC1 | 9.15
O=C(NCCc1csc(-c2ncccn2)n1)c1cnn2c1CCCC2 | -18.5
CC(C)(C)n1cc(C2=CCN(CCNC(=O)c3ccccc3)CC2)cn1 | -5.4
CCCOc1ccc(C(=O)N2C[C@@H](CN3CCCC3)[C@@H](CO)C2)cc1Cl | 1.78

Structure (SMILES) | cytotoxicity at 70.5 h [%]
CC(=O)NCC1CCC2(CCN(c3ncnc4oc(C)nc34)CC2)O1 (centres undefined) | 21.7
CN(CCNC(=O)c1cccnc1)S(C)(=O)=O | -5.32
O=C(N1CCOCC1)N1CC[C@@](O)(c2ccccc2)[C@H]2CCCC[C@@H]21 | -1.75
CN(C)CCC1CCCCN1Cc1cnn(C)c1C1CC1 (centres undefined) | 2.52
Cc1ccc(C)c(OCc2cc(C(=O)N(C)Cc3nonc3C)no2)c1 | 3.12
CN(C)CC(C)(C)CN1CCC(c2ccnc(-c3cccc(O)c3)c2)C1 (centres undefined) | -8.34
Cc1nc2c(C)cccc2cc1C(=O)N1CCC2(CCCNC2)C1 (centres undefined) | -11.4
COC(=O)CCCC(=O)N1CCCCC1c1ccc(F)cc1 (centres undefined) | 2.01
CS(=O)(=O)N1CCCn2nc(CNc3cc(C#N)ccn3)cc2C1 | -6.16
Cc1cnccc1NCCNC1CCSCC1 | -17.3
CC(C)c1cc(C(=O)NCCc2nc3c(s2)CCC3)n(C)n1 | 8.71
COCCN1CCCC2(CCN(c3cc(C)c(C#N)c(C)n3)C2)C1=O (centres undefined) | 14.9
COc1ccc(-c2n[nH]cc2CN(C)Cc2nccn2C)c(F)c1 | -3.33
CCn1nc(C)cc1C(=O)NCc1cccnc1N(C)C | 2.09
Cc1cc(C)c(C#N)c(NCCSc2nncn2C)n1 | -6.87
CCCn1cc(-c2cc(C(=O)N(C)C)c3cccc(C)c3n2)cn1 | -7.56
COc1cccn(Cc2nnc(-c3cccc(F)c3)o2)c1=O | -3.37
CN(C)c1cc(N(C)Cc2cc(C(C)(C)C)n[nH]2)ncn1 | -2.08
Cc1cnc(C)c(-c2cccc(-c3ccn(CCN4CCCC4)n3)c2)n1 | 11.2
CC(C)n1cnnc1CN(C)Cc1cnc(-c2ccccn2)nc1 | -5.94
COCC1CCN(S(=O)(=O)N2C[C@H](c3ccccc3)[C@@H](N)C2)CC1 | -1.87
CCc1nnc(CN(C)C[C@@H]2CCCN3CCCC[C@H]23)o1 | -3.62
CCCOc1ccc(C(=O)N2CC[C@H]3CC[C@@H](C2)N3)cc1Cl | -14.3
O=C(CCN1CCNCC1)N1CCC2(CC1)c1ccccc1CC2O (centres undefined) | -6.68
NCC1Cc2cc(Oc3cc(F)c(CN4CCCC4)c(F)c3)ccc2O1 (centres undefined) | -11.4
N#Cc1cccc(NC2CC(=O)N(Cc3ccccc3Cl)C2)n1 (centres undefined) | 18.9
COc1cc(-c2nc(C3CC3)nn2-c2ccnc(C)c2)nc(OC)n1 | -14.3

Structure (SMILES) | cytotoxicity at 70.5 h [%]
Cc1cc(F)ccc1OC1(C(=O)O)CCN(Cc2cccnc2)CC1 | 3.7
CN(C)Cc1nnc(C2CCCN(c3nc(C(N)=O)cs3)C2)n1C (centres undefined) | -7.8
CC(Cc1ccccn1)N(C)C(=O)c1ncc[nH]1 (centres undefined) | -8.42
Cc1nccn1CCN(C)C(=O)c1cn(-c2ccccc2)nn1 | 33.5
Cc1cc(F)ccc1N1CCC(N2C[C@@H](CN(C)C)[C@@H](CO)C2)CC1 | -6.24
NC(=O)CN1CCC(C(=O)NCc2nc(-c3ccc(F)cc3)cs2)CC1 | -0.391
CCc1nnc(CN(CC)C(=O)C2CC(=O)N(C(C)(C)C)C2)o1 (centres undefined) | -4.84
COc1nc(C)c(C(=O)N2CCc3[nH]nc(C4CCCC4)c3C2)s1 | -2
CCc1cc(N2CCC(NCCc3ccccc3F)CC2)nc(C)n1 | 5.19
CN(CCc1cn[nH]c1)C(=O)C1CC(=O)N(Cc2cccnc2)C1 (centres undefined) | 34.9
CSCc1nc(CNC(=O)C2CCCN(CC(N)=O)C2)cs1 (centres undefined) | 11.4
COc1ccccc1OCc1cc(C(=O)N2CCCCCC2CO)n[nH]1 (centres undefined) | 8.73
COc1ccccc1OCCCN(C)c1cc(C)nc(N)n1 | -4.86
O=C(NCCc1cnccn1)c1cccc(S(=O)(=O)NC2CCOC2)c1 (centres undefined) | -1.15
C[C@@H]1CN(C(=O)CCN2CCCC2)CC[C@@]1(O)C1CCC1 | 1.37
CC(C)C(NC(=O)c1ccc(=O)[nH]c1)c1nnc2n1CCNCC2 (centres undefined) | -6.19
O=C(c1nc2sccn2c1-c1ncc[nH]1)N1CCCCC1 | -17.8
O=C(CCC(=O)N1CCC(Cc2ccc(CO)cc2)C1)c1ccccc1 (centres undefined) | -13.8
CN(Cc1nc2ccsc2c(=O)[nH]1)C[C@@H]1CCCN2CCCC[C@H]12 | 14.5
O=C(CN1CCOC1=O)N1CCc2nnc(Cc3ccccc3)n2CC1 | 17.1
COCCC1(C(=O)O)CCCN(Cc2cc3c(cc2Cl)OCO3)C1 (centres undefined) | -5.22
O=C1NC[C@@]2(C(=O)O)CN(Cc3cccc(C(F)(F)F)c3)C[C@@H]12 | 7.18
O=C(CCCn1ccnc1)N1CCC2(CC1)[C@H](O)C[C@@H]2OCCO | -7.46
Cc1ccc(C2(CN3CCCC3)CCNCC2)nc1 | -9.4
CCN1CC(C(=O)N2CCC(Oc3ccccc3Cl)CC2)CC1=O (centres undefined) | 4.13
